According to patent US4282111A (Betz Laboratories, Inc., priority 1980, dated 1981):

Experiments:
[1] = Cohn and Powell, J. Amer. Chem. Soc., 76, 2568 (1954); cited from earlier work
[2] = oxygen scavenging in feedwater of a working boiler (Example 2)
Method: In order to compare the performance of hydroquinone with that of hydrazine under field-type conditions, a series of experiments were conducted on the feedwater of a working boiler. The test materials were fed to the deaerator storage tank, and the resultant change, if any, in dissolved oxygen level was measured on a sample flowing from the feedwater line through a membrane-type dissolved oxygen probe.
During the tests, a relatively wide range of experimental conditions was encountered among the test parameters, reflecting the difficulty of attempting to obtain precise data during experiments performed on a working boiler.
In order to provide some point of reference for judging oxygen scavenging efficacies while taking into account the diverse conditions experienced on a daily basis, hydrazine control runs were performed, whenever possible, under feedwater and boiler conditions similar to those encountered during testing of other test materials. The hydrazine control runs are reported below in TABLE 3 also in terms of % oxygen removal.

[3] = low temperatures such as room temperature; background; cited from earlier work
[4] = for % O2 Removed, 1 Minute: hydroquinone: pH 8.6, 22.5 °C, 0.94 mol/mol O2, initial O2 7.7 ppm
Source text: The test apparatus basically consisted of a 1 liter three-necked flask fitted with a dissolved oxygen probe and a pH electrode. The intent of this apparatus was to show reaction kinetics differences rather than precise measurements (within seconds) of reaction times.
The flask was filled with deionized water which had been stripped of some dissolved oxygen by bubbling nitrogen through a diffuser stone. The pH was adjusted to the desired level with sodium hydroxide. The flask was sealed with a rubber septum, the dissolved oxygen probe and an inlet stopper. A magnetic stirrer bar was left in the flask for mixing. The mixer was turned on, and dissolved oxygen and temperature readings were recorded until the dissolved oxygen reached a constant value. Next, the appropriate quantity of additive was injected through the septum using a hypodermic syringe. The initial mole ratio of treatment to dissolved oxygen was determined by weighing feed chemical and measuring the oxygen concentration. […] Dissolved oxygen and temperature readings were then taken at appropriate time intervals.

[5] = background, cited from earlier work
[6] = oxygen scavenging in stainless steel hot water flow system at elevated temperature and pressure (Example 1); conditions: for % O2 Removed: 78±3°C, 4±1 psig, 4±0.2 min contact, feedwater: hydrazine 96 ppm pH 10.3 O2 1.8 ppm (average of 9 runs), hydroquinone 100 ppm pH 8.9 O2 2.3 ppm, p-phenylenediamine 69 ppm pH 10.9 O2 2.0 ppm, o-phenylenediamine 58 ppm pH 10.2 O2 2.0 ppm, resorcinol 90 ppm pH 9.8 O2 1.8 ppm, values below 20% may be artifacts; for oxygen scavenging in the test water (in words): conclusion from TABLE 1
Method: In a first series of tests, the oxygen scavenging efficacies of various materials were evaluated under conditions of elevated temperature and pressure. The test apparatus used was essentially a stainless steel hot water flow system equipped with appropriate monitoring instrumentation. Demineralized feedwater, adjusted to the appropriate pH and initial dissolved oxygen level (controlled by nitrogen sparging), was pumped from a reservoir at ambient temperature into a once-through heater. Temperature was monitored continuously by means of thermocouples at several locations along the length of the flow tubing. A solution containing the oxygen scavenger test material was loaded into a pump driven syringe and fed continuously to the heated flow stream through a port containing a stainless steel ribbon mixing baffle. The feedwater containing dissolved oxygen and the test material then traversed the flow tubing via a by-pass comprising an additional length of coiled tubing. Contact (or reaction) time of the test material and dissolved oxygen was governed by the choice of coil length. The tendency of the temperature to drop during residence in the coiled tubing was offset by the use of thermostatted heating tapes which maintained the temperature in this tubing at 78°±3°C. Upon exiting the coiled tubing, the stream flowed through a sample cooler to render the temperature of the liquid compatible with the operating range of a membrane-type dissolved oxygen probe. The cooled liquid was analyzed for dissolved oxygen via a D.O. flow cell, and pH was potentiometrically monitored in the flow tube immediately downstream of the D.O. probe. Outputs of the temperature, pH and dissolved oxygen probes during operation were monitored via strip chart recorders. The final destination of the reaction mixture was a reservoir which could be drained for analysis of reaction products, if desired.
Temperature in the system could be maintained at 78°±3° C. under 4±1 psig. Residence time of the feedwater in the flow tube from chemical feed point to D.O. flow cell outlet was 4±0.2 minutes. Approximately 3.5 minutes of this total was spent in a 40' length of 0.402 inch i.d. coiled tubing. Entry into and residence in the sample cooler accounted for 0.5 minute of the total contact time.
According to an article by J. W. Cohn and R. E. Powell, Jr., J. Amer.
The test solutions were prepared by initially mixing 10 grams of test material and 90 grams of demineralized water in glass bottles and allowing the mixture to remain in a shaker for several hours. If complete dissolution for a given material was observed after shaking, the pH of the solution was measured. When the pH of the solution was below 10.0, 7 N sodium hydroxide was added dropwise until this value was reached. The quantity of added sodium hydroxide was recorded and later used in corrections for the active concentration of the solution. When the pH value of a stock solution was above pH 10.0 without requiring the addition of caustic, the solution was not further modified.
Results of these tests are reported in TABLE 1 below in terms of percent oxygen removed from the test stream. The precision of the initial and final dissolved oxygen values reported is approximately ±10%. […] The experimental uncertainties decrease with increasing values of percent dissolved oxygen removal.

[7] = thermal decomposition of aqueous solutions in autoclaves (Example 5); conditions: hydrazine 60 ppm, 435 psig, 450 °F, 4 hours
Method: The aqueous solutions (approximately 50-60 ppm in demineralized water) were subjected to specified temperature and pressure conditions for 4 hours prior to chemical analysis.

[8] = background; cited from earlier work
test rats = conditions: conclusion from TABLE 4; cited from earlier work
[9] = hydrazine: pH 9.2, 26.5 °C, 10.5 mol/mol O2, initial O2 0.87 ppm

NN [hydrazine]
pH of maximum oxygen scavenging efficacy in solution [1]: 10.0-10.5
% O2 Removed ([2]; hydrazine control run 1: 1.6 ppm actives, pH 8.8, steam load 11 (1000 lbs./hr.), initial O2 13.0 ppb): 69%
% O2 Removed ([2]; hydrazine control run 2: 1.1 ppm actives, pH 9.4, steam load 15 (1000 lbs./hr.), initial O2 4.0 ppb): 50%
% O2 Removed ([2]; hydrazine control run 3: 1.2 ppm actives, pH 8.6, steam load 15 (1000 lbs./hr.), initial O2 6.0 ppb): 60%
% O2 Removed ([2]; hydrazine control run 4: 1.0 ppm actives, pH 8.8, steam load 15 (1000 lbs./hr.), initial O2 5.8 ppb): 55%
% O2 Removed ([2]; hydrazine control run 5: 0.8 ppm actives, pH 9.4, steam load 11 (1000 lbs./hr.), initial O2 3.5 ppb): 31%
% O2 Removed ([2]; hydrazine control run 6: 1.6 ppm actives, pH 9.6, steam load 14 (1000 lbs./hr.), initial O2 4.0 ppb): 30%
rate of hydrazine-oxygen reaction (in words) [3]: very slow at low temperatures
% O2 Removed, 1 Minute [4, 9]: 1%
% O2 Removed, 5 Minutes ([4]; 5 minutes, hydrazine: pH 9.2, 26.5 °C, 10.5 mol/mol O2, initial O2 0.87 ppm): 2%
temperature above which it decomposes ([5]; to nitrogen, hydrogen and ammonia): Above 400 °F
% O2 Removed [6]: 91 ± 4%
% Decomposition [7]: 20%
toxicity (in words) [8]: extreme toxicity and carcinogenicity

Oc1ccc(O)cc1 [hydroquinone]
% O2 Removed ([2]; 1.9 ppm actives, pH 8.4, steam load 15 (1000 lbs./hr.), initial O2 8.0 ppb): 88%
% O2 Removed ([2]; 1.9 ppm actives, pH 8.4, steam load 15 (1000 lbs./hr.), initial O2 10.0 ppb): 90%
efficacy in treating boiler feedwater (in words) ([2]; conclusion from TABLES 2 and 3): compared favorably with hydrazine
toxicity compared to hydrazine (in words) (test rats): significantly less toxic as compared to hydrazine
% O2 Removed, 1 Minute [4, 9]: 29%
reactivity at low temperature with oxygen (in words) ([4]; conclusion from TABLE 5, compared to hydrazine): superiority of hydroquinone, as compared to hydrazine
% O2 Removed [6]: 97%
oxygen scavenging in the test water (in words) [6]: at least equivalent to, if not better than, hydrazine

Nc1ccccc1N [o-phenylenediamine]
% O2 Removed [6]: 10%
oxygen scavenging in the test water (in words) [6]: did not work as oxygen scavengers

Nc1ccc(N)cc1 [p-phenylenediamine]
% O2 Removed [6]: 35%
oxygen scavenging in the test water (in words) [6]: did not work as oxygen scavengers

Oc1cccc(O)c1 [resorcinol]
% O2 Removed [6]: 0%
oxygen scavenging in the test water (in words) [6]: did not work as oxygen scavengers

O=S([O-])[O-].[Na+].[Na+] [sodium sulfite]
decomposition in the boiler (in words) ([5]; at high pressures): decomposes in the boiler to form sulfur dioxide and hydrogen sulfide
